Key:
D(2) dopamine receptor = D(2) dopamine receptor (Rattus norvegicus, UniProt P61169); assay: Displacement of [3H]raclopride from rat dopamine D2 receptor
D(1A) dopamine receptor = D(1A) dopamine receptor (Rattus norvegicus, UniProt P18901); assay: Displacement of [3H]SCH-23390 from rat dopamine D1 receptor
[1] = molecular target: 5-hydroxytryptamine receptor 7 (Rattus norvegicus) (UniProt P32305); assay: Displacement of [3H]5-HT from rat 5-HT7 receptor
[2] = molecular target: T1, 5-hydroxytryptamine receptor 1A (Rattus norvegicus, UniProt P19327); assay: Displacement of [3H]8-OH-DPAT from rat 5HT1A receptor
T1 sequence (P19327 whole entry): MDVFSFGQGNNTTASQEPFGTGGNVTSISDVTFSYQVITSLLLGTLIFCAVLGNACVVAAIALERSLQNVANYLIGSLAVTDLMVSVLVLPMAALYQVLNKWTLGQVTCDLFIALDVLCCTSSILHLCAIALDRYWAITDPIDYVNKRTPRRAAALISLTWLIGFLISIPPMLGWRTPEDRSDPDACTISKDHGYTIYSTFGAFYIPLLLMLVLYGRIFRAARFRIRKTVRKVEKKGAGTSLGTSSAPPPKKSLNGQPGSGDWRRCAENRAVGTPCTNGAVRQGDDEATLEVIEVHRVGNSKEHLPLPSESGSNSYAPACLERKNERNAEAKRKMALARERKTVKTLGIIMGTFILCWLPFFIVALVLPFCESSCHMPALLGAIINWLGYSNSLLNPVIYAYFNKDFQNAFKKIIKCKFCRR

[3] = Inhibition of rat midbrain dopaminergic neuron firing; assay type: functional; conditions: read-out: ID50 (the source's name)
[4] = molecular target: Sodium-dependent dopamine transporter (Rattus norvegicus, UniProt P23977); assay: Displacement of [3H]DA from rat DAT
Sodium-dependent dopamine transporter, sequence (P23977 whole entry): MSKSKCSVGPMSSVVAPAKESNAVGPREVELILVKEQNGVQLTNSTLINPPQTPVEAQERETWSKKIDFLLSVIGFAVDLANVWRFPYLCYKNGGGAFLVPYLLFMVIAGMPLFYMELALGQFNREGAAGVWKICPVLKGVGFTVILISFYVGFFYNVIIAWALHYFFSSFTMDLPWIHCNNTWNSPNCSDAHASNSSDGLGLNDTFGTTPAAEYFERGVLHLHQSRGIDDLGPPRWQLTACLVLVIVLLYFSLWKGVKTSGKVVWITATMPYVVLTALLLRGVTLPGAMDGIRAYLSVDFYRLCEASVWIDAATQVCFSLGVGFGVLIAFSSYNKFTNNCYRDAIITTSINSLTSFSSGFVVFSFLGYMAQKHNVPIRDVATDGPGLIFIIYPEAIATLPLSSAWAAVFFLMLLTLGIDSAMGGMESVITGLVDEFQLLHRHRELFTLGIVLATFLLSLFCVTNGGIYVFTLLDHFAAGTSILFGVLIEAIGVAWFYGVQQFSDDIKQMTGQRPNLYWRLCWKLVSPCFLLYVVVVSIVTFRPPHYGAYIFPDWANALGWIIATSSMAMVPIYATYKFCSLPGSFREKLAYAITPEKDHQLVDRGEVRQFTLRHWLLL

D(1A) dopamine receptor, sequence (P18901 whole entry): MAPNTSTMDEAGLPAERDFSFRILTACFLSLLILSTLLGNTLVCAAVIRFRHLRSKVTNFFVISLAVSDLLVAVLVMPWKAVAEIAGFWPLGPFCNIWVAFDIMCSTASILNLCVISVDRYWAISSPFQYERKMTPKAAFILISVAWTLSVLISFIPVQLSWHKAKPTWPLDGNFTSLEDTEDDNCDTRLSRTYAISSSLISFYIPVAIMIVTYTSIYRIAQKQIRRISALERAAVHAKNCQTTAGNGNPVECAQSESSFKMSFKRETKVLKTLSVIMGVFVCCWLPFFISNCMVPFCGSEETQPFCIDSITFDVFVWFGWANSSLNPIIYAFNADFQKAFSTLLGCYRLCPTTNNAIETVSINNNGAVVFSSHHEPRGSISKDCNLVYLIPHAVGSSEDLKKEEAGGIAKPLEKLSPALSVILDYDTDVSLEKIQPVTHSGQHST
D(2) dopamine receptor, sequence (P61169 whole entry): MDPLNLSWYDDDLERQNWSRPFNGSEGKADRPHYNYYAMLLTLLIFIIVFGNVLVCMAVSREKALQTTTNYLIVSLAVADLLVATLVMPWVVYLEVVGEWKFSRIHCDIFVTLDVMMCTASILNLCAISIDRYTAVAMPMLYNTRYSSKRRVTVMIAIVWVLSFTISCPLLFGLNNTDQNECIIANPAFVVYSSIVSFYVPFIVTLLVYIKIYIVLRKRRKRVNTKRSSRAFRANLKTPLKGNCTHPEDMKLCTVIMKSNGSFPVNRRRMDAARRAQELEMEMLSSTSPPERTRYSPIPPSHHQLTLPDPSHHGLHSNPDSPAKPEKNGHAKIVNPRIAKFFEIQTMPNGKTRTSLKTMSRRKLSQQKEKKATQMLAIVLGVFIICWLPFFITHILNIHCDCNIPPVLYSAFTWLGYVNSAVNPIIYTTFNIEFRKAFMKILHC
5-hydroxytryptamine receptor 7 (Rattus norvegicus), sequence (P32305 whole entry, looked up): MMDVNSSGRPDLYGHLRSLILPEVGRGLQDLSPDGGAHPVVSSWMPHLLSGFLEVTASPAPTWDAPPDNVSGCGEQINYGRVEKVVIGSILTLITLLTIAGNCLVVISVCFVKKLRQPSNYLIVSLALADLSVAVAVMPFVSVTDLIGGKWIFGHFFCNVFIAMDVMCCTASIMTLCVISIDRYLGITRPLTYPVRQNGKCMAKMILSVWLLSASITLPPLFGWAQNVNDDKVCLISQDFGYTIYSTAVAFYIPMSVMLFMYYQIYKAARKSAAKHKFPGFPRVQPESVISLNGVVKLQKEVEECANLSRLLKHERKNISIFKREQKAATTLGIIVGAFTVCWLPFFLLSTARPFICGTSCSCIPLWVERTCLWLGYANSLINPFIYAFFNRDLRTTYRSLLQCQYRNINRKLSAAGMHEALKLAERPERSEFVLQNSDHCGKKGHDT

Ki (D(2) dopamine receptor) [nM]	Ki (D(1A) dopamine receptor) [nM]	Compound	also measured
15000	> 20000	CCN1CCc2cc(O)cc3c2C1Cc1ccccc1C3 (stereo unspecified)	–
> 100000	–	Cc1cccc(O)c1-c1cccc2c1-c1cccc3c1[C@@H](C2)N(C)CC3 (stereo in doubt; 59)	Ki [1]: 4.3 nM; Ki [2]: 300000 nM
13000	4300	COc1cc2c3c(c1OC)Cc1ccccc1CC3NCC2 (stereo unspecified)	–
180	> 10000	CCCCCCCCCCCCCCCCCCCCCC(=O)Oc1cccc2c1-c1cccc3c1[C@@H](C2)N(CCC)CC3	–
16000	8300	CCN1CCc2cc(O)c(O)c3c2C1Cc1ccccc1C3 (stereo unspecified)	–
71	–	CO[C@@]1(C)c2cccc3c2-c2c1ccc1c2[C@@H](C3)N(C)CC1	Ki [1]: 1.1 nM; Ki [2]: 17 nM
–	–	CN1CCc2cccc3c2[C@@H]1Cc1ccc(O)c(O)c1-3 [(S)APOMORPHINE]	ED50 [3]: 8.4 µmol/kg
> 10000	–	CCN1CCc2cccc3c2C1Cc1cc(O)ccc1O3 (stereo unspecified)	–
–	–	CN1CCc2ccc3c4c2[C@H]1Cc1cccc(c1-4)[C@@H]3N	Ki [1]: 18 nM; Ki [2]: 360 nM
–	–	Cc1cccc(C#N)c1-c1cccc2c1-c1cccc3c1[C@@H](C2)N(C)CC3 (stereo in doubt; 58)	Ki [1]: 3.8 nM
–	–	CCCN1CCc2cc(OC)cc3c2[C@H]1Cc1ccc(O)c(O)c1-3	IC50 (D(2) dopamine receptor): 10.2 nM
> 10000	> 10000	CCCN1CCc2cc(O)cc3c2C1Cc1ccccc1O3 (stereo unspecified)	–
14000	> 70000	CCCN1CCc2cc(OC)c(OC)c3c2C1Cc1ccccc1C3 (stereo unspecified)	–
8000	10800	Oc1cc2c3c(c1O)Cc1ccccc1CC3NCC2 (stereo unspecified)	–
–	–	COc1cc2c3c(c1OC)-c1c(ccc(O)c1O)CC3N(C)CC2 (stereo unspecified) [SUAVEOLINE]	IC50 (D(1A) dopamine receptor): 63000 nM; IC50 [4]: > 100000 nM
–	–	CCCN1CCc2cc(O)cc3c2[C@H]1Cc1ccc(O)c(O)c1-3	IC50 (D(2) dopamine receptor): 0.07 nM
19000	6300	COc1cc2c3c(c1)Cc1ccccc1CC3NCC2 (stereo unspecified)	–
39	–	C[C@H]1c2cccc3c2-c2c1ccc1c2[C@@H](C3)N(C)CC1	Ki [1]: 6 nM; Ki [2]: 31 nM
540	–	CN1CCc2ccc3oc(=O)c4cccc5c4c3c2[C@H]1C5	Ki [1]: 280 nM; Ki [2]: 1150 nM
270	3000	CN1CCc2cc(O)cc3c2C1Cc1ccccc1O3 (stereo unspecified)	–

Ki (D(2) dopamine receptor) [nM]	Ki (D(1A) dopamine receptor) [nM]	Compound	also measured
–	–	COc1cccc2c1-c1c3c(cc4c1C(C2)N(C)CC4)OCO3 (stereo unspecified)	IC50 (D(2) dopamine receptor): > 100000 nM; IC50 (D(1A) dopamine receptor): > 100000 nM; IC50 [4]: 32000 nM
24	–	CN1CCc2ccc3c4c2[C@H]1Cc1cccc(c1-4)[C@H]3O	Ki [1]: 14 nM
–	–	COc1ccc2c(c1O)Oc1c(OC)ccc3c1[C@H](C2)N(C)CC3 [SARCOCAPNIDINE]	IC50 (D(2) dopamine receptor): 2000 nM; IC50 (D(1A) dopamine receptor): 50000 nM
–	–	COc1cc2c(cc1OC)Oc1c(O)ccc3c1[C@H](C2)N(C)CC3 [CULARIDINE]	IC50 (D(2) dopamine receptor): 300 nM; IC50 (D(1A) dopamine receptor): 800 nM
19	–	C[C@@H]1c2cccc3c2-c2c1ccc1c2[C@@H](C3)N(C)CC1	Ki [1]: 3.3 nM; Ki [2]: 5.1 nM
6700	22300	CCCN1CCc2cc(O)c(O)c3c2C1Cc1ccccc1C3 (stereo unspecified)	–
40000	30000	CCCN1CCc2cc(O)cc3c2C1Cc1ccccc1C3 (stereo unspecified)	–
2500	–	Cc1cccc(C#N)c1-c1cccc2c1-c1cccc3c1[C@@H](C2)N(C)CC3 (stereo in doubt; 57)	Ki [1]: 21 nM; Ki [2]: 800000 nM
14000	11600	CCCN1CCc2cc(OC)cc3c2C1Cc1ccccc1C3 (stereo unspecified)	–
> 10000	> 10000	CCCN1CCc2cccc3c2C1Cc1cc(O)ccc1O3 (stereo unspecified)	–
7	–	CO[C@]1(C)c2cccc3c2-c2c1ccc1c2[C@@H](C3)N(C)CC1	Ki [1]: 1.1 nM; Ki [2]: 17 nM
–	–	COc1cc2c(cc1O)C[C@H]1c3c(ccc(O)c3O2)CCN1C [BREOGANINE]	IC50 (D(2) dopamine receptor): 200 nM; IC50 (D(1A) dopamine receptor): 100 nM
3.8	170	CN1CCc2cc(-c3ccc(O)cc3)cc3c2[C@H]1Cc1cccc(O)c1-3	–
210	–	CN1CCc2ccc3c4c2[C@H]1Cc1cccc(c1-4)[C@@H]3O	Ki [1]: 100 nM
> 100000	–	Cc1cccc(O)c1-c1cccc2c1-c1cccc3c1[C@@H](C2)N(C)CC3 (stereo in doubt; 60)	Ki [1]: 23 nM; Ki [2]: 49000 nM
270	–	CN1CCc2ccc3c(=O)oc4cccc5c4c3c2[C@H]1C5	Ki [1]: 1500 nM; Ki [2]: 2000 nM
–	–	Oc1ccc2c(c1)C[C@H]1NCCc3cc4c(c-2c31)OCO4 [ANOLOBINE]	IC50 (D(2) dopamine receptor): 15000 nM; IC50 (D(1A) dopamine receptor): 36000 nM
–	–	O=C1c2ccccc2-c2c3c(cc4ccnc1c24)OCO3 [LIRIODENINE]	IC50 (D(2) dopamine receptor): 59000 nM; IC50 (D(1A) dopamine receptor): 75000 nM
–	–	COc1c(O)c2c3c(c1OC)CCN(C)C3Cc1ccccc1-2 (stereo unspecified)	IC50 (D(2) dopamine receptor): 2800 nM; IC50 (D(1A) dopamine receptor): 17200 nM; IC50 [4]: 40000 nM
15000	6100	CN1CCc2cc(O)c(O)c3c2C1Cc1ccccc1C3 (stereo unspecified)	–

Ki (D(2) dopamine receptor) [nM]	Ki (D(1A) dopamine receptor) [nM]	Compound	also measured
180	–	CN1CCc2ccc3c4c2[C@H]1Cc1cccc(c1-4)[C@@]3(C)O	Ki [1]: 28 nM; Ki [2]: 310 nM
–	–	COc1c(O)c2c3c(c1OC)CCN[C@@H]3Cc1ccccc1-2 [ISOPILINE]	IC50 (D(2) dopamine receptor): 30000 nM; IC50 (D(1A) dopamine receptor): 9800 nM
3600	–	CC(=O)N[C@@H]1c2cccc3c2-c2c1ccc1c2[C@@H](C3)N(C)CC1	Ki [1]: 540 nM; Ki [2]: 200 nM
8000	–	CC(=O)N[C@H]1c2cccc3c2-c2c1ccc1c2[C@@H](C3)N(C)CC1	Ki [1]: 1320 nM; Ki [2]: 720 nM
–	–	COc1cc2c(cc1O)Oc1c(O)ccc3c1[C@H](C2)N(C)CC3 [CELTISINE]	IC50 (D(2) dopamine receptor): 30 nM; IC50 (D(1A) dopamine receptor): 60 nM
–	–	c1ccc2c(c1)C[C@H]1NCCc3cc4c(c-2c31)OCO4 [ANONAINE]	IC50 (D(2) dopamine receptor): 19000 nM; IC50 (D(1A) dopamine receptor): 68000 nM
9700	6600	CCN1CCc2cc(OC)cc3c2C1Cc1ccccc1C3 (stereo unspecified)	–
8900	6400	CN1CCc2cc(O)cc3c2C1Cc1ccccc1C3 (stereo unspecified)	–
–	–	COc1c(O)c2c3c(nccc3c1OC)C(C)(C)c1cc(O)ccc1-2 [MELOSMINE]	IC50 (D(2) dopamine receptor): 80000 nM; IC50 (D(1A) dopamine receptor): 12500 nM; IC50 [4]: 24600 nM
4900	> 60000	COc1cc2c3c(c1OC)Cc1ccccc1CC3N(Cc1ccccc1)CC2 (stereo unspecified)	–
8200	8600	COc1cc2c3c(c1)Cc1ccccc1CC3N(C)CC2 (stereo unspecified)	–
26	–	CN1CCc2ccc3c4c2[C@H]1Cc1cccc(c1-4)[C@]3(C)O	Ki [1]: 4.3 nM
–	–	COc1c2c3c(c4c1OCO4)-c1ccccc1C[C@H]3NCC2 [NORSTEPHALAGINE]	IC50 (D(2) dopamine receptor): 27000 nM; IC50 (D(1A) dopamine receptor): 4800 nM
260	–	CN1CCc2ccc3c4c2[C@H]1Cc1cccc(c1-4)[C@H]3N	Ki [1]: 13 nM; Ki [2]: 140 nM
20000	3700	Oc1cc2c3c(c1)Cc1ccccc1CC3NCC2 (stereo unspecified)	–
–	–	COc1cc2c(cc1O)C[C@@H]1NCCc3cc(O)c(OC)c-2c31 [NORBOLDINE]	IC50 (D(2) dopamine receptor): 6800 nM; IC50 (D(1A) dopamine receptor): 2500 nM
–	–	COc1ccc2c(c1O)Oc1c(O)ccc3c1[C@H](C2)N(C)CC3 [CLAVICULINE]	IC50 (D(2) dopamine receptor): 1500 nM; IC50 (D(1A) dopamine receptor): 1000 nM; IC50 [4]: > 100000 nM
> 20000	7200	COc1cc2c3c(c1OC)Cc1ccccc1CC3N(C)CC2 (stereo unspecified)	–
83	–	CN1CCc2ccc3c4c2[C@@]1(C)Cc1cccc(c1-4)C3	Ki [1]: 7 nM; Ki [2]: 41 nM

Compound	Ki (D(2) dopamine receptor) [nM]	Ki (D(1A) dopamine receptor) [nM]	also measured
COc1cc2c(cc1OC)-c1c(OC)c(O)c(I)c3c1[C@H](C2)N(C)CC3	830	6	–
COc1cc2c(cc1OC)-c1c(OC)c(O)c(Br)c3c1[C@H](C2)N(C)CC3	610	15	–
CCCN1CCc2cccc3c2[C@H]1Cc1ccc(C)c(O)c1-3	250	2000	–
COc1cc2c(cc1O)C[C@H]1c3c(c(I)c(O)c(OC)c3-2)CCN1C	68	2	–
CCCCC(=O)Oc1cccc2c1-c1cccc3c1[C@@H](C2)N(CCC)CC3	34	> 20000	–
COc1cc2c(cc1O)C[C@H]1c3c(c(Br)c(O)c(OC)c3-2)CCN1C [3-BROMOBOLDINE]	740	49	–
COc1cc2c(cc1OC)-c1c(OC)c(OC)c(Br)c3c1[C@H](C2)N(C)CC3	2400	520	–
CCCN1CCc2cc(F)cc3c2[C@H]1Cc1cccc(OC=O)c1-3	39	800	–
CCCN1CCc2cc(SC)cc3c2[C@H]1Cc1ccc(O)c(O)c1-3	3.7	–	–
Oc1cccc2c1-c1cccc3c1[C@@H](C2)NCC3	1000	–	–
COc1cc2c(cc1OC)-c1c(OC)c(OC)c(I)c3c1[C@H](C2)N(C)CC3	4500	2110	–
Cc1ccc2c(c1O)-c1cccc3c1[C@@H](C2)N(C)CC3	1070	–	–
CN1CCc2ccc3c(=O)[nH]c4cccc5c4c3c2[C@H]1C5	6100	–	Ki [1]: 340 nM; Ki [2]: 370 nM
Cc1ccc2c(c1O)-c1cccc3c1[C@@H](C2)NCC3	> 10000	> 20000	–
CCc1cccc2c1-c1cccc3c1[C@@H](C2)N(C)CC3	79	–	–
CCCN1CCc2cccc3c2[C@H]1Cc1cccc(OC(C)=O)c1-3	–	> 10000	–
COc1cc2c(cc1OC)-c1c(OC)c(O)cc3c1[C@H](C2)N(C)CC3 [PREDICENTRINE]	760	240	–

From ChEMBL document CHEMBL1141452, “Advances in development of dopaminergic aporphinoids” (J Med Chem, 2007)
